Assay results reported in BigSolDB 2.1.

Cc1c(C(=O)O)cc([N+](=O)[O-])cc1[N+](=O)[O-]
solubility (mole fraction)
Conditions	288.15 K	293.15 K	298.15 K	303.15 K	308.15 K	313.15 K	318.15 K	323.15 K	328.15 K	333.15 K
in acetonitrile	0.0071	0.0084	0.00994	0.012	0.0145	0.0176	0.0209	0.0248	0.0292	0.0341
in cyclohexane	1.4e-05	1.96e-05	2.69e-05	3.64e-05	4.87e-05	6.37e-05	8.12e-05	0.000103	0.000131	0.000166
in ethanol	0.0467	0.0526	0.0604	0.0695	0.0783	0.0882	0.099	0.11	0.123	0.134
in ethyl acetate	0.0237	0.0271	0.0312	0.0359	0.041	0.0467	0.0536	0.0611	0.0694	0.0781
in isopropanol	0.0102	0.0121	0.0147	0.017	0.0202	0.0232	0.0276	0.0327	0.0384	0.0442
in n-butanol	0.0109	0.0129	0.0152	0.0179	0.0209	0.0243	0.0284	0.034	0.0393	0.0457
in n-heptanol	0.0128	0.0146	0.017	0.0208	0.025	0.0295	0.0341	0.0396	0.0458	0.0524
in n-hexanol	0.00982	0.0114	0.0131	0.0151	0.0177	0.0208	0.0244	0.0288	0.0338	0.0394
in n-pentanol	0.012	0.0138	0.0165	0.0193	0.0226	0.026	0.0303	0.0356	0.0414	0.0478
in n-propanol	0.0126	0.0146	0.0169	0.0202	0.0239	0.0278	0.0326	0.0381	0.0442	0.0505
in sec-butanol	0.0114	0.0134	0.0158	0.0187	0.0219	0.0257	0.03	0.0349	0.0405	0.0467
in toluene	0.0174	0.0207	0.0242	0.0284	0.0328	0.0377	0.0434	0.0493	0.0558	0.0628
in water	1.67e-05	2.35e-05	3.5e-05	4.55e-05	5.87e-05	7.99e-05	0.000108	0.000137	0.000171	0.000218
